Measurements taken from PubChem BioAssay AID623903 (Broad Institute, 2012).
“And” between values parts separate entries of the source, which are not always exact repeats. Identical values can stand only once. The source made the active and inactive calls.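 How the source made its calls: active means compounds cutting yeast growth whose half-maximal concentration is at most twice their top valid dose; inconclusive means flat growth loss of 30 to 70 percent, or poor fit; inactive means the rest.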

test system: not listed separately; experiment: C. glabrata growth inhibition on glycerol, dose response, glycerol medium, OD600, powder samples, set 2 (AID 623903); details: Candida glabrata growth in glycerol, OD600, 48 h; at 6 µM (top of the series)

**Q.** Which growth change, negative = inhibition does the source give for O=C1NC(=S)NC12CCCCC2 here?
**A.** Its growth change, negative = inhibition is 10.1% (inactive).

**Q.** With Cc1ccc(N2C(=O)C(=O)NC2=S)cc1 as the compound, how does the growth change, negative = inhibition read?
**A.** The growth change, negative = inhibition was 19.6% (inactive).

**Q.** For Cc1ccc(N2C(=O)C3(CCCCC3)NC2=S)cc1, which growth change, negative = inhibition is on record?
**A.** The growth change, negative = inhibition was 5.63% (inactive).

**Q.** For CCOC(=O)N1C(=S)N(c2ccc(C)cc2)C(=O)C12CCCCC2, which growth change, negative = inhibition is on record?
**A.** Its growth change, negative = inhibition is 14.3% (inactive).

**Q.** Which growth change, negative = inhibition does the source give for O=C1NC(=S)N(Cc2ccccc2)C12CCCCC2 here?
**A.** Its growth change, negative = inhibition is -0.552% (inactive).

**Q.** Which growth change, negative = inhibition does the source give for CCCCN1C(=O)N(c2ccc(C)cc2)C2(CCCCC2)C1=O here?
**A.** Its growth change, negative = inhibition is -2.19% (inactive).

**Q.** For Cc1ccc(N2CC(=O)NC2=S)cc1, which growth change, negative = inhibition is on record?
**A.** The growth change, negative = inhibition was 3.32% (inactive).

**Q.** Which growth change, negative = inhibition does the source give for CCOC(=O)N1C(=S)NC(=O)C12CCCCC2 here?
**A.** The growth change, negative = inhibition was 11.1% (inactive).

**Q.** For Cc1ccc(N2C(=S)N(C)C(=O)C23CCCCC3)cc1, which growth change, negative = inhibition is on record?
**A.** Its growth change, negative = inhibition is -20.3% (inactive).

**Q.** Which growth change, negative = inhibition does the source give for Cc1ccc(N2C(=O)NC(=O)C23CCCCC3)cc1 here?
**A.** The growth change, negative = inhibition was 44.5% (inactive).

**Q.** With Cc1ccc(N2C(=S)N(C(=O)Oc3ccccc3)C(=O)C23CCCCC3)cc1 as the compound, how does the growth change, negative = inhibition read?
**A.** The growth change, negative = inhibition was -4.17% (inactive).

**Q.** With Cc1ccc(N2CC(=O)NC2=O)cc1 as the compound, how does the growth change, negative = inhibition read?
**A.** The growth change, negative = inhibition was 28.9% (inactive).

**Q.** For Cc1ccc(N2C(=S)NC(=O)C23CCCCC3)cc1, which growth change, negative = inhibition is on record?
**A.** Its growth change, negative = inhibition is -3.05% (inactive).

**Q.** Which growth change, negative = inhibition does the source give for CCOC(=O)N1C(=O)N(c2ccc(C)cc2)C2(CCCCC2)C1=O here?
**A.** The growth change, negative = inhibition was -38.8% (inactive).

**Q.** Which growth change, negative = inhibition does the source give for CCOC(=O)N1C(=O)C2(CCCCC2)NC1=S here?
**A.** Its growth change, negative = inhibition is -2.7% (inactive).

**Q.** Which growth change, negative = inhibition does the source give for Cc1ccc(N2C(=S)NC(=O)C23CCCC3)cc1 here?
**A.** Its growth change, negative = inhibition is -31.4% (inactive).

**Q.** For O=C1NC(=S)N(c2ccc(F)cc2)C12CCCCC2, which growth change, negative = inhibition is on record?
**A.** Its growth change, negative = inhibition is -17.4% (inactive).

**Q.** Which growth change, negative = inhibition does the source give for O=C1NC(=S)N(c2ccccc2)C12CCCCC2 here?
**A.** The growth change, negative = inhibition was 21.1% (inactive).

**Q.** For Cc1ccc(N2C(=O)N(C)C(=O)C23CCCCC3)cc1, which growth change, negative = inhibition is on record?
**A.** The growth change, negative = inhibition was 24.2% (inactive).

**Q.** With Cc1ccc(N2C(=S)NC(=O)C2(C)C)cc1 as the compound, how does the growth change, negative = inhibition read?
**A.** Its growth change, negative = inhibition is -2.42% (inactive).

**Q.** For Cc1ccc(N2C(=S)N(S(C)(=O)=O)C(=O)C23CCCCC3)cc1, which growth change, negative = inhibition is on record?
**A.** Its growth change, negative = inhibition is 1.2% (inactive).

**Q.** Which growth change, negative = inhibition does the source give for CC(C)N1C(=S)NC(=O)C12CCCCC2 here?
**A.** The growth change, negative = inhibition was 5.61% (inactive).

**Q.** For Cc1ccc(N2C(=S)NC(=O)C23CCC3)cc1, which growth change, negative = inhibition is on record?
**A.** Its growth change, negative = inhibition is 3.27% (inactive).

**Q.** Which growth change, negative = inhibition does the source give for CCOC(=O)N1C(=O)C(C)(C)N(c2ccc(C)cc2)C1=S here?
**A.** The growth change, negative = inhibition was -13.4% (inactive).

test system: Candida glabrata growth in glycerol, OD600, 48 h; experiment: as above; details: not given

**Q.** For CCCc1ccc(N2C(=S)N(C(=O)OCC)C(=O)C23CCCCC3)cc1, which AC50 is on record?
**A.** The AC50 was 629 nM.

**Q.** Which AC50 does the source give for CCOC(=O)N1C(=O)C2(CCCCC2)N(c2ccc(C(C)C)cc2)C1=S here?
**A.** Its AC50 is 829 nM.

**Q.** For CCOC(=O)N1C(=O)C2(CCCCC2)N(Cc2ccccc2)C1=S, which AC50 is on record?
**A.** Its AC50 is under 23.5 nM.

**Q.** Which AC50 does the source give for CCOC(=O)N1C(=S)N(c2ccc(C)cc2)C2(CCCCC2)C1=NCc1ccccc1 here?
**A.** Its AC50 is 3750 nM.

**Q.** For CCOC(=O)N1C(=O)C2(CCCCC2)N(c2ccc(OC)cc2)C1=S, which AC50 is on record?
**A.** The AC50 was 255 nM.

**Q.** Which AC50 does the source give for CCOC(=O)N1C(=O)C2(CCCCC2)N(c2ccc(C(C)(C)C)cc2)C1=S here?
**A.** Its AC50 is 1980 nM.

**Q.** With Cc1ccc(N2C(=S)N(C(=O)OCc3ccccc3)C(=O)C23CCCCC3)cc1 as the compound, how does the AC50 read?
**A.** Its AC50 is 5540 nM.

**Q.** Which AC50 does the source give for CCOC(=O)N1C(=O)C2(CCCCC2)N(c2ccc(F)cc2)C1=S here?
**A.** Its AC50 is under 23.5 nM.

**Q.** Which AC50 does the source give for CCCOC(=O)N1C(=O)C2(CCCCC2)N(c2ccc(C)cc2)C1=S here?
**A.** The AC50 was 95.3 nM.

**Q.** For CCOC(=O)N1C(=O)C2(CCCCC2)N(c2ccc(Cl)cc2)C1=S, which AC50 is on record?
**A.** Its AC50 is under 23.5 nM.

**Q.** With CCOC(=O)N1C(=O)C2(CCCCC2)N(c2ccc(C)cc2)C1=S as the compound, how does the AC50 read?
**A.** The AC50 was 56.4 nM and 45.2 nM.

**Q.** Which AC50 does the source give for CCOC(=O)N1C(=O)C2(CCCCC2)N(c2ccc(C(F)(F)F)cc2)C1=S here?
**A.** The AC50 was 44.3 nM.

**Q.** Which AC50 does the source give for Cc1ccc(N2C(=S)N(C(=O)OC(C)C)C(=O)C23CCCCC3)cc1 here?
**A.** The AC50 was 638 nM.

**Q.** For CCCC(=O)N1C(=O)C2(CCCCC2)N(c2ccc(C)cc2)C1=S, which AC50 is on record?
**A.** Its AC50 is 102 nM.

**Q.** With CC1/C=C/C=C\C=C\C=C\C=C\C=C\C=C\C(O[C@H]2OC(C)C(O)C(N)C2O)CC2OC(O)(CC(O)CC(O)C(O)CCC(O)CC(O)CC(=O)OC(C)C(C)C1O)CC(O)C2C(=O)O (stereo partly drawn) as the compound, how does the AC50 read?
**A.** Its AC50 is 205 nM.

**Q.** For CCOC(=O)N1C(=O)C2(CCC2)N(c2ccc(C)cc2)C1=S, which AC50 is on record?
**A.** Its AC50 is 2510 nM.

**Q.** For CCOC(=O)N1C(=O)C2(CCCCC2)N(C(C)C)C1=S, which AC50 is on record?
**A.** Its AC50 is 2750 nM.

**Q.** For CCOC(=O)N1C(=O)C2(CCCCC2)N(c2ccccc2C)C1=S, which AC50 is on record?
**A.** The AC50 was 541 nM.

**Q.** For CCOC(=O)N1C(=O)C2(CCCCC2)N(c2ccc(-c3ccccc3)cc2)C1=S, which AC50 is on record?
**A.** The AC50 was 242 nM.

**Q.** Which AC50 does the source give for CCCCN1C(=O)N(c2ccc(C)cc2)C2(CCCCC2)C1=S here?
**A.** The AC50 was > 12000 nM (inactive).

**Q.** For CCOC(=O)N1C(=O)C2(CCCCC2)N(c2cccc(C)c2)C1=S, which AC50 is on record?
**A.** The AC50 was 86.6 nM.

**Q.** For CCCCN1C(=O)C2(CCCCC2)N(c2ccc(C)cc2)C1=S, which AC50 is on record?
**A.** The AC50 was > 12000 nM (inactive).

**Q.** For Cc1ccc(N2C(=S)NC(=O)C23CCOCC3)cc1, which AC50 is on record?
**A.** Its AC50 is > 12000 nM (inactive).

**Q.** Which AC50 does the source give for CCOC(=O)N1C(=O)C2(CCCCC2)N(c2ccc(CC)cc2)C1=S here?
**A.** The AC50 was 133 nM.

**Q.** For COC(=O)N1C(=O)C2(CCCCC2)N(c2ccc(C)cc2)C1=S, which AC50 is on record?
**A.** The AC50 was 136 nM.

**Q.** With CCOC(=O)N1C(=O)C2(CCOCC2)N(c2ccc(C)cc2)C1=S as the compound, how does the AC50 read?
**A.** Its AC50 is 1480 nM.

**Q.** For CCOC(=O)N1C(=O)C2(CCCC2)N(c2ccc(C)cc2)C1=S, which AC50 is on record?
**A.** The AC50 was 315 nM.

**Q.** For CCOC(=O)N1C(=O)C2(CCCCC2)N(c2ccccc2)C1=S, which AC50 is on record?
**A.** The AC50 was 28.9 nM.

**Q.** For CCOC(=O)N1C(=O)C2(CCCCC2)N(c2ccc(C#N)cc2)C1=S, which AC50 is on record?
**A.** Its AC50 is 67.2 nM.
